Data taken from patent publication US20250114487A1, “COMBINATION TREATMENT OF TUMORS” (The University of Chicago, priority 2023, published 2025).
Read-outs that look alike come from different tables or passages of the source.

Columns and labels:
QGP-1 cells [1] = experiment: Cell counting after irradiation with Fulvestrant and PARPi Talazoparib, QGP-1 cells; type: cell-based; settings: fulvestrant in combination with irradiation vs fulvestrant alone, 3 days after irradiation
Text: Total number of cells were counted 3 days after irradiation.

QGP1 cells = experiment: QGP1 cell number after irradiation in the presence or absence of estrogen; type: cell-based; settings: 3.5 days after irradiation (4 Gy)
Experimental: Additional experiments were conducted to further evaluated the mechanism behind fulvestrant-induced radiosensitization. QGP1 cells were cultured in the presence or absence of estrogen and treated with fulvestrant, irradiation, or fulvestrant and irradiation. The number of cells were evaluated 3.5 days after irradiation (4 Gy). […] This is a strong indication that the effect of fulvestrant is off-target and not through the estrogen receptor pathway. RNA sequencing experiments were conducted to further evaluate the potential mechanism behind radiosensitization.

ER36 or ER56 [2] = experiment: Western blot of ERα isoform levels, NCI-H727 cells; type: cell-based; set-up: dose or concentration left out as unconfirmed; settings: fulvestrant
Experimental: (§1) Western blot analysis was conducted in various NET cell lines to investigate expression levels of various ERα isoforms. The breast cancer cell line MCF7 was used as a positive control. […] In contrast, the most common isoform of ERα, ER66 kDa, was not present in QGP1 cells, as compared to MCF7. Expression of ER36 was further verified in NCI-H727 cells (FIG. 8B). Expression of ER56 was further verified in NCI-H727 cells and BON1 cells (FIG. 8C). […] Without wishing to be bound by theory, it is possible that this lack of effect of fulvestrant is because ER36 and ER 56 lack the […] binding region to which fulvestrant binds. […] (FIG. 8E).

ER36 or ER56 [3] = experiment: Western blot of ERα isoform levels, QGP1 cells; type: cell-based; settings: 100 mM fulvestrant
Experimental: as §1

QGP1.SSTR2 mice = experiment: In vivo PRRT sensitization, xenograft mice (QGP1.SSTR2)
Experimental: In vivo studies were conducted in mice. […] Tumor volume and survival was assessed up to 100 days post injection.

GOT-1 cells = experiment: In vitro radiosensitization, GOT-1 cells; type: cell-based
Text: (§2) For in vitro experiments, various neuroendocrine tumor (NET) cell lines were used from different primary tumor origins. Specifically, pancreatic cells (QGP-1), small bowel cells (GOT-1), and lung cells (NCI-H727) were used. Cells were supplemented with estrogen (E2)-free or E2-supplemented media to determine the effects of E2 on cell proliferation and DNA repair factors. ESR1 was inhibited by si-RNA mediated knockdown of ESR1 or by administration of the selective estrogen receptor degrader Fulvestrant. Knockdown of ESR1 was achieved using […] siRNA. qPCR was performed to verify knockdown by quantifying ESR1 mRNA levels. For administration of Fulvestrant, 100 nm Fulvestrant was used.
(§3) Radiation (IR) was administered using a dose of 4 Gy using external beam radiation therapy (EBRT). Radiation was administered 24 hours following ESR1 inhibition.
(§4) Cells were treated with […] siRNA against ESR1 followed by irradiation (4 Gy dose), or treated with Fulvestrant followed by irradiation (4 Gy dose). […] Without wishing to be bound by theory, it is possible that estrogen inhibition radiosensitizes cells by decreasing expression of genes involved in DNA repair pathways. This was evaluated by measuring mRNA levels of DNA repair factors Rad51, BRCA1, and BRCA2 following treatment of QGP-1 cells with Fulvestrant for 36 hours or 72 hours.

[4] = tested on: ESR1, Rad51, BRCA1, BRCA2 mRNA; experiment: qPCR of mRNA expression of DNA repair factors in QGP-1 cells; type: cell-based; settings: QGP-1 cells treated with Fulvestrant for 36 hours or 72 hours
Experimental: For in vitro experiments, various neuroendocrine tumor (NET) cell lines were used from different primary tumor origins. Specifically, pancreatic cells (QGP-1), small bowel cells (GOT-1), and lung cells (NCI-H727) were used. Cells were supplemented with estrogen (E2)-free or E2-supplemented media to determine the effects of E2 on cell proliferation and DNA repair factors. […] Knockdown of ESR1 was achieved using 30 uM siRNA. qPCR was performed to verify knockdown by quantifying ESR1 mRNA levels.
QGP-1 cells were growth in media with standard fetal bovine serum (WT), E2-free media for 7 days, or E-2 free media for 2 days followed by growth in E2 media containing 1 uM E2 additive for 24 hours. mRNA expression of DNA repair factors was evaluated by qPCR.

SSTR2 = experiment: Western blot of SSTR2 levels, SSTR2 positive QGP1 cells; type: cell-based; settings: SSTR2 positive QGP1 cells treated with fulvestrant or fulvestrant and irradiation
QGP-1 tumors = experiment: In vivo radiosensitization, mouse xenograft model with QGP-1 tumors; settings: for cumulative survival: IR (4 Gy) + 5 mg Fulvestrant subcutaneously compared to irradiation alone and Fulvestrant alone; for tumor volume size: compared to control groups
Experimental: For in vivo experiments, a mouse xenograft model created using QGP-1 cells was used.
as §3
Radiosensitization was subsequently evaluated in vivo using a mouse model harboring QGP-1 tumors. Four different treatment groups were used. One group was a control that received neither irradiation nor fulvestrant. The second group received fulvestrant alone (5 mg, subcutaneous). The third group received irradiation alone. The fourth group received irradiation and fulvestrant (5 mg. subcutaneous). Tumor volume and overall survival was evaluated. Tumor volume was evaluated at day 7, day 15, day 24, and day 35 post treatment. […] Control mice were euthanized between day 15 and day 24 due to deteriorating health. At day 24 and day 35, no control mice were surviving and as such results presented therein only show treatment with fulvestrant, treatment with irradiation, or treatment with fulvestrant and irradiation.

QGP-1 cells [5] = experiment: In vitro radiosensitization, QGP-1 cells; type: cell-based; settings: 3.5 days following 100 nM Fulvestrant + IR (4 Gy) vs IR alone
Text: as §2, §3, §4

QGP1.SSTR2 cells [6] = experiment: Additional clonogenic assays, QGP1.SSTR2 cells; type: cell-based; settings: single agent (5.6 μCi Lu-177 DOTA-TATE or fulvestrant) compared to untreated cells
Experimental: Additional clonogenic assays and in-vivo experiments were conducted using Lu-177 DOTA-TATE in combination with Fulvestrant. […] Results are quantified in FIG. 12B. Treatment with Lu-177-DOTA-TATE alone decreased the number of colonies compared to untreated cells and cells treated with fulvestrant alone. Treatment with fulvestrant alone decreased the number of colonies compared to untreated cells.

QGP1.SSTR2 cells [7] = settings: 5.6 μCi dose of Lu-177 DOTA-TATE, alone or with 1 uM ATRA or 100 nM Fulvestrant
Experimental: For in vitro studies, QGP1 cells (pancreatic NET cells) were engineered to express luciferase (QGP1.luc) or to express luciferase and overexpress the somatostatin receptor 2 (SSTR2) (QGP1.SSTR2.luc). Cells were treated with PRRT alone, or PRRT in combination with estrogen receptor inhibition or all-trans-retinoic acid (ATRA).

[8] = tested on: QGP1.SSTR2 cells or QGP1 cells not expressing SSTR2
Experimental: Cells were treated with PRRT alone, or PRRT in combination with estrogen receptor inhibition or all-trans-retinoic acid (ATRA).

## C[C@]12CC[C@@H]3c4ccc(O)cc4C[C@@H](CCCCCCCCC[S+]([O-])CCCC(F)(F)C(F)(F)F)[C@H]3[C@@H]1CC[C@@H]2O (some centres unmarked) [Fulvestrant]
QGP-1 cells [1]
  cell death: increases cell death
QGP1 cells
  radiosensitization (number of cells): radiosensitizes cells regardless of whether estrogen was present or not present
ER36 or ER56 [2]
  ER36 or ER56 levels: not found to influence
ER36 or ER56 [3]
  ER36 or ER56 levels: not found to influence
QGP1.SSTR2 mice; compared to control mice
  survival: did not show significant differences
GOT-1 cells; 3.5 days following 100 nM Fulvestrant + irradiation (4 Gy) vs irradiation alone
  total cell growth: significant decrease
GOT-1 cells; 5 days following 100 nM Fulvestrant + IR (4 Gy) vs IR alone
  total cell: significant decrease
[4]
  mRNA levels of Rad51, BRCA1, BRCA2: lower
SSTR2
  SSTR2 levels: did not increase
QGP-1 tumors
  cumulative survival: significantly improved survival
QGP-1 tumors; listed as Fulevestrant
  cumulative survival: significantly improved cumulative survival
QGP-1 tumors; combination of irradiation (4 Gy) and fulvestrant (5 mg, subcutaneous)
  survival, up to: up to 70 days
QGP-1 tumors; day 35 post treatment, irradiation and fulvestrant compared to irradiation alone
  tumor volume: significant decrease
QGP-1 tumors; fulvestrant alone (5 mg, subcutaneous)
  tumor volume size: decreased
QGP-1 tumors; fulvestrant alone (5 mg, subcutaneous), untreated control not past day 18
  survival, until day: ≤ 28 days
QGP-1 tumors; fulvestrant alone vs untreated control mice
  survival: significantly longer survival
QGP-1 tumors; irradiation plus fulvestrant (5 mg, subcutaneous)
  tumor volume size: decreased
QGP-1 cells [5]
  total cell growth: significant decrease
QGP1.SSTR2 cells [6]
  number of colonies: decreased

## C[C@@H](O)[C@H](NC(=O)[C@@H]1CSSC[C@H](NC(=O)[C@@H](Cc2ccccc2)NC(=O)CN2CCN(CC(=O)[O-])CCN(CC(=O)[O-])CCN(CC(=O)[O-])CC2)C(=O)N[C@@H](Cc2ccc(O)cc2)C(=O)N[C@H](Cc2c[nH]c3ccccc23)C(=O)N[C@@H](CCCCN)C(=O)N[C@@H]([C@@H](C)O)C(=O)N1)C(=O)O.[177Lu+3] [Lu-177 DOTA-TATE, lutetium Lu-177 DOTA-TATE]
QGP1.SSTR2 cells [7]
  colony count: about 40 cells
QGP1.SSTR2 mice; Lu-177-DOTA-TATE alone
  mice surviving at day 100: less than 25%
QGP1.SSTR2 mice; compared to control mice and mice treated with fulvestrant
  survival: significantly longer
QGP1.SSTR2 mice; day 7 and day 21 post injection, compared to control mice and mice treated with fulvestrant alone
  tumor volume: significantly smaller
[8]; 5.6 μCi Lu-177 DOTA-TATE alone, FIG. 10B
  cell count: about 150
[8]; 14.6 μCi Lu-177 DOTA-TATE alone, FIG. 10C
  cell count: less than 40
QGP1.SSTR2 cells [6]
  number of colonies: decreased
